Assay results published in ChEMBL document CHEMBL2151025, “Synthesis and structure-activity relationship of potent, selective and orally active anthranilamide-based factor Xa inhibitors: application of weakly basic sulfoximine group as novel S4 binding element” (Eur J Med Chem, 2012).
Active and inactive are the calls of the source. The rule behind the calls is not given here.

Legend:
[1] = test system: Plasma
[2] = target: T1, Coagulation factor X (Homo sapiens, UniProt P00742); assay: Inhibition of human F10a using S-2765 as substrate at 0.1 uM after 45 mins
[3] = test system: Plasma; assay: Anticoagulant activity in rat plasma assessed as concentration required to double prothrombin time; assay type: functional
[4] = target: T1, Coagulation factor X; assay: Inhibition of human F10a using S-2765 as substrate after 45 mins
[5] = target: Tissue-type plasminogen activator (Homo sapiens, UniProt P00750); assay: Inhibition of tPA assessed as S-2288 substrate hydrolysis by microplate reader analysis
[6] = target: Prothrombin (Homo sapiens, UniProt P00734); assay: Inhibition of thrombin assessed as S-2238 substrate hydrolysis by microplate reader analysis
[7] = target: T1, Coagulation factor X; assay: Inhibition of F10a assessed as S-2765 substrate hydrolysis by microplate reader analysis
[8] = Inhibition of trypsin assessed as S-2222 substrate hydrolysis by microplate reader analysis
[9] = target: CYP3A4 (Homo sapiens, UniProt P08684); assay: Inhibition of human CYP3A4 at 10 uM; assay type: ADME
[10] = target: Vitamin K-dependent protein C (Homo sapiens, UniProt P04070); assay: Inhibition of activated protein C assessed as S-2366 substrate hydrolysis by microplate reader analysis
[11] = target: Plasminogen (Homo sapiens, UniProt P00747); assay: Inhibition of plasmin assessed as S-2302 substrate hydrolysis by microplate reader analysis
[12] = test system: Rattus norvegicus; assay: Cmax in fasted Wistar rat assessed as 5-Chloro-N-(5-chloropyridin-2-yl)-2-(4-(N-(2-(ethyl-amino)acetyl)-S-methylsulfon imidoyl) benzamido) benzamide at 30 mg/kg, po; assay type: ADME, organism-based; set-up: dose 30 mg/kg, route oral; conditions: in vivo
[13] = test system: Rattus norvegicus; assay: AUC (0 to 24 hrs) in fasted Wistar rat assessed as 5-Chloro-N-(5-chloropyridin-2-yl)-2-(4-(N-(2-(ethyl-amino)acetyl)-S-methylsulfon imidoyl) benzamido) benzamide at 30 mg/kg, po; assay type: ADME, organism-based, Plasma; set-up: time < 24 hr, dose 30 mg/kg, route oral; conditions: in vivo
[14] = test system: Plasma; assay: Plasma concentration in fasted Wistar rat at 30 mg/kg, po; assay type: ADME, organism-based; set-up: dose 30 mg/kg, route oral; conditions: in vivo
[15] = test system: Rattus norvegicus; assay: Tmax in fasted Wistar rat assessed as 5-Chloro-N-(5-chloropyridin-2-yl)-2-(4-(N-(2-(ethyl-amino)acetyl)-S-methylsulfon imidoyl) benzamido) benzamide at 30 mg/kg, po; assay type: ADME, organism-based; set-up: dose 30 mg/kg, route oral; conditions: in vivo
[16] = test system: Rattus norvegicus; assay: Half life in fasted Wistar rat assessed as 5-Chloro-N-(5-chloropyridin-2-yl)-2-(4-(N-(2-(ethyl-amino)acetyl)-S-methylsulfon imidoyl) benzamido) benzamide at 30 mg/kg, po; assay type: ADME, organism-based; set-up: dose 30 mg/kg, route oral; conditions: in vivo
[17] = test system: Rattus norvegicus; assay: Antithrombotic activity in FeCl3-induced venous thrombosis Wistar rat model assessed as reduction in thrombus weight at 30 mg/kg, po after 2 hrs; assay type: functional; set-up: scale not given: the % may be the effect or the level left
[18] = test system: Rattus norvegicus; assay: Antithrombotic activity in FeCl3-induced arterial thrombosis Wistar rat model assessed as reduction in thrombus weight at 30 mg/kg, po after 2 hrs; assay type: functional; set-up: scale not given: the % may be the effect or the level left
[19] = test system: Rattus norvegicus; assay: Antithrombotic activity in FeCl3-induced venous thrombosis Wistar rat model assessed as reduction in thrombus weight at 10 mg/kg, po after 2 hrs; assay type: functional; set-up: scale not given: the % may be the effect or the level left
[20] = test system: Rattus norvegicus; assay: Antithrombotic activity in FeCl3-induced arterial thrombosis Wistar rat model assessed as reduction in thrombus weight at 10 mg/kg, po after 2 hrs; assay type: functional; set-up: scale not given: the % may be the effect or the level left
[21] = test system: Rattus norvegicus; assay: Antithrombotic activity in po dosed FeCl3-induced venous thrombosis Wistar rat model assessed as reduction in thrombus weight after 2 hrs; assay type: functional, organism-based
[22] = test system: Rattus norvegicus; assay: Antithrombotic activity in po dosed FeCl3-induced arterial thrombosis Wistar rat model assessed as reduction in thrombus weight after 2 hrs; assay type: functional, organism-based

T1 sequence (P00742 41-179 limits assumed): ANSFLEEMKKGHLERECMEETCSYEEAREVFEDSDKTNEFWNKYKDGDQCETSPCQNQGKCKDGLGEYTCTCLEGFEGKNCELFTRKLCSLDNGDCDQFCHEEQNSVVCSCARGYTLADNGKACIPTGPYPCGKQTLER
T1 sequence (P00742 235-488 limits assumed): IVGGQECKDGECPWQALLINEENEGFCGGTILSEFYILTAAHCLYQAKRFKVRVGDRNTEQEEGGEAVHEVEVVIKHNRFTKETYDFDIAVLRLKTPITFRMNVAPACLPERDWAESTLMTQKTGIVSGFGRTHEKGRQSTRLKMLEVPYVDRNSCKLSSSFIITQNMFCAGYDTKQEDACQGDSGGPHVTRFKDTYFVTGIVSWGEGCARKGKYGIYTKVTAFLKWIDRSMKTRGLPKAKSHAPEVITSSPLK
Tissue-type plasminogen activator, sequence (P00750 whole entry): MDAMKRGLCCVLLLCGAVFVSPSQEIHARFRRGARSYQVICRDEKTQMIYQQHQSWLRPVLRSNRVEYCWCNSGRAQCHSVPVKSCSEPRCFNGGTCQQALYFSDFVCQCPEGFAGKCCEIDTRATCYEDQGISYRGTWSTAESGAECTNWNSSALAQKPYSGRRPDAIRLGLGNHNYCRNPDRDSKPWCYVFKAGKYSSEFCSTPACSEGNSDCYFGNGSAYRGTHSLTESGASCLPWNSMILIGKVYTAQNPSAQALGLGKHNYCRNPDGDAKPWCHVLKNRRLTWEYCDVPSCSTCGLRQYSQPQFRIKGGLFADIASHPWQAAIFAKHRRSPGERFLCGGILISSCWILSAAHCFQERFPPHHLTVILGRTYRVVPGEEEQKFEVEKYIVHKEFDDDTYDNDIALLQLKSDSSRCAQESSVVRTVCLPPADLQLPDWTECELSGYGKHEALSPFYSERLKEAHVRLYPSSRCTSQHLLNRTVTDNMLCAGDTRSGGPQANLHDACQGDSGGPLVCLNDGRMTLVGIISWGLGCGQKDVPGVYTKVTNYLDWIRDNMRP
CYP3A4, sequence (P08684 whole entry): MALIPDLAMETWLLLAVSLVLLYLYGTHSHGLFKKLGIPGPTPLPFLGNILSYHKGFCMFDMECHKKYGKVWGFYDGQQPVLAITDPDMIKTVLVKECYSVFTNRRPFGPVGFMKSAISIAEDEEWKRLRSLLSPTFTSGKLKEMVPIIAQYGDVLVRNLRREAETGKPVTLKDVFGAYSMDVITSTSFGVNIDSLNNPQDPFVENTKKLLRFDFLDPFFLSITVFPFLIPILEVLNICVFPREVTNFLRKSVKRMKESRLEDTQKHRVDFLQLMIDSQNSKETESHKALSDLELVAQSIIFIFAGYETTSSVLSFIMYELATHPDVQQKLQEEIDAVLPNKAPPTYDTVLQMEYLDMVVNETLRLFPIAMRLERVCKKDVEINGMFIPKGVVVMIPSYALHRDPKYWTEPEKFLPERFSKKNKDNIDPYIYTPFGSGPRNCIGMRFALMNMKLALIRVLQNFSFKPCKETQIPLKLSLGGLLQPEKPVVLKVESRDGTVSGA
Vitamin K-dependent protein C, sequence (P04070 43-197 limits assumed): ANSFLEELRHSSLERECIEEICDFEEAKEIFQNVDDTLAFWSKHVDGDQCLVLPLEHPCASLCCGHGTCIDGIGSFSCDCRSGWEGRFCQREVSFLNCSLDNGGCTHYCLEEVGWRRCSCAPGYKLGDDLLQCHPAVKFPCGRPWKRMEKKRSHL
Vitamin K-dependent protein C, sequence (P04070 212-461 limits assumed): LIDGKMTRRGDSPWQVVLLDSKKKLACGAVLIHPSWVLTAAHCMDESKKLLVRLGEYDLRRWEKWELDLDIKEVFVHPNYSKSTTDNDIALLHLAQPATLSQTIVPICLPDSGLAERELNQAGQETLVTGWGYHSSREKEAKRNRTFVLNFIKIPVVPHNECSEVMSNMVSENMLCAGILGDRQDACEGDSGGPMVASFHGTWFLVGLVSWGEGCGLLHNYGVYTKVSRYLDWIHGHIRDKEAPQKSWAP
Plasminogen, sequence (P00747 97-580 limits assumed): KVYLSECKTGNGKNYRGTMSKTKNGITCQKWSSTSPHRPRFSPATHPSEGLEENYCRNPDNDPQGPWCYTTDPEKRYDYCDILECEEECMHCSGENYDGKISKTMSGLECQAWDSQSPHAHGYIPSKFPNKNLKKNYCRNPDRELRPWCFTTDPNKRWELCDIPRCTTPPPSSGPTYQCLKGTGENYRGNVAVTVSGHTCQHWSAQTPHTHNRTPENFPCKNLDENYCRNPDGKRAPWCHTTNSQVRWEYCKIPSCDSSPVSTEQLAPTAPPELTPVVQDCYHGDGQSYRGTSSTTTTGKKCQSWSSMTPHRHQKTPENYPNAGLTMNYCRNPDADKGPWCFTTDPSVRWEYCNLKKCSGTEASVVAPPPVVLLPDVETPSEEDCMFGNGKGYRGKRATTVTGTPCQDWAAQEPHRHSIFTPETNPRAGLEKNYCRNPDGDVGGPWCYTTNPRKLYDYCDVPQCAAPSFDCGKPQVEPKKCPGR
Plasminogen, sequence (P00747 581-810 limits assumed): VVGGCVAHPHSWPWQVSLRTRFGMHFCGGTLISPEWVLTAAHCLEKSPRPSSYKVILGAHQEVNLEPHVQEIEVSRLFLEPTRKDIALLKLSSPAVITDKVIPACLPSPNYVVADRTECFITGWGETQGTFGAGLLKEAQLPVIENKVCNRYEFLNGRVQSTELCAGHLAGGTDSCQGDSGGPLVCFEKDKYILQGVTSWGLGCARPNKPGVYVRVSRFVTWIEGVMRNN

Row | SMILES | 2PT [1] [µM] | inhibition [2] | 2PT [3] [µM] | also measured
1 | CCN(CC)CCN=S(C)(=O)c1ccc(C(=O)Nc2ccc(Cl)cc2C(=O)Nc2ccc(Cl)cn2)cc1 (configuration not stated) | 1.78 | 77% |  | 
2 | CN1CCCN(CC(=O)N=S(C)(=O)c2ccc(C(=O)Nc3ccc(Cl)cc3C(=O)Nc3ccc(Cl)cn3)cc2)CC1 (configuration not stated) | 1.82 | 75% |  | 
3 | CS(=O)(=NC(N)=O)c1ccc(C(=O)Nc2ccc(Cl)cc2C(=O)Nc2ccc(Cl)cn2)cc1 (configuration not stated) | 4.1 | 41% |  | 
4 | CS(=O)(=NC(=O)CN1CCC(C(N)=O)CC1)c1ccc(C(=O)Nc2ccc(Cl)cc2C(=O)Nc2ccc(Cl)cn2)cc1 (configuration not stated) | 2.54 | 49% |  | 
5 | COc1cc(Cl)cc(C(=O)Nc2ccc(Cl)cn2)c1NC(=O)c1ccc(S(C)(=N)=O)cc1 (configuration not stated) |  | 69% |  | 
6 | CCN(CC)CC(=O)N=S(C)(=O)c1ccc(C(=O)Nc2c(OC)cc(Cl)cc2C(=O)Nc2ccc(Cl)cn2)cc1 (configuration not stated) | 0.92 | 97% | 1.3 | IC50 [4]: 3.4 nM
7 | COc1cccc(C(=O)Nc2ccc(Cl)cn2)c1NC(=O)c1ccc(S(C)(=N)=O)cc1 (configuration not stated) |  | inactive |  | 
8 | COCC(=O)N=S(C)(=O)c1ccc(C(=O)Nc2ccc(Cl)cc2C(=O)Nc2ccc(Cl)cn2)cc1 (configuration not stated) | 3 | 48% |  | 
9 | CNCC(=O)N=S(C)(=O)c1ccc(C(=O)Nc2ccc(Cl)cc2C(=O)Nc2ccc(Cl)cn2)cc1 (configuration not stated) | 0.77 | 93% | 1.7 | IC50 [4]: 5.4 nM
10 | CCS(=N)(=O)c1ccc(C(=O)Nc2ccc(Cl)cc2C(=O)Nc2ccc(Cl)cn2)cc1 (configuration not stated) |  | inactive |  | 
11 | CS(=O)(=NC(=O)CN1CCOCC1)c1ccc(C(=O)Nc2ccc(Cl)cc2C(=O)Nc2ccc(Cl)cn2)cc1 (configuration not stated) |  | 45% |  | 
12 | CCNCC(=O)N=S(C)(=O)c1ccc(C(=O)Nc2ccc(Cl)cc2C(=O)Nc2ccc(Cl)cn2)cc1 (configuration not stated) | 0.81 | 100% | 2.1 | Ki [5]: > 20000 nM; Ki [6]: > 20000 nM; Ki [7]: 1.5 nM; Ki [8]: > 20000 nM; inhibition at 10 µM [9]: 27%; Ki [10]: > 20000 nM; Ki [11]: > 20000 nM; IC50 [4]: 2.7 nM
13 | CNCC(=O)N=S(C)(=O)c1ccc(C(=O)Nc2c(OC)cc(Cl)cc2C(=O)Nc2ccc(Cl)cn2)cc1 (configuration not stated) | 0.58 | 92% | 0.9 | IC50 [4]: 5.6 nM
14 | CC(=O)N=[S+](C)([O-])c1ccc(C(=O)Nc2ccc(Cl)cc2C(=O)Nc2ccc(Cl)cn2)cc1 (configuration not stated) | 7 | 61% |  | 
15 | CS(=O)(=NC(=O)CN1CCCCC1)c1ccc(C(=O)Nc2ccc(Cl)cc2C(=O)Nc2ccc(Cl)cn2)cc1 (configuration not stated) | 1.73 | 97% |  | 
16 | CS(=O)(=NC(=O)CNC1CCCC1)c1ccc(C(=O)Nc2ccc(Cl)cc2C(=O)Nc2ccc(Cl)cn2)cc1 (configuration not stated) | 2.26 | 100% |  | 
17 | CN(C)CCN=S(C)(=O)c1ccc(C(=O)Nc2ccc(Cl)cc2C(=O)Nc2ccc(Cl)cn2)cc1 (configuration not stated) | 1.14 | 82% | 2.01 | IC50 [4]: 11.6 nM
18 | CC(C)NCC(=O)N=S(C)(=O)c1ccc(C(=O)Nc2ccc(Cl)cc2C(=O)Nc2ccc(Cl)cn2)cc1 (configuration not stated) | 0.95 | 97% | 1.9 | IC50 [4]: 4 nM
19 | CN1CCN(CC(=O)N=S(C)(=O)c2ccc(C(=O)Nc3ccc(Cl)cc3C(=O)Nc3ccc(Cl)cn3)cc2)CC1 (configuration not stated) | 2.03 | 88% |  | 

Row | SMILES | 2PT [1] [µM] | inhibition [2] | 2PT [3] [µM] | also measured
20 | COc1cc(Cl)cc(C(=O)Nc2ccc(Cl)cn2)c1NC(=O)c1ccc(S(C)(=O)=NC(=O)CN2CCCC2)cc1 (configuration not stated) | 0.53 | 90% | 1.1 | IC50 [4]: 6.4 nM
21 | CS(=O)(=O)N=S(C)(=O)c1ccc(C(=O)Nc2ccc(Cl)cc2C(=O)Nc2ccc(Cl)cn2)cc1 (configuration not stated) | 2.6 | 55% |  | 
22 | CS(=O)(=NC(=O)CN1CCCC1)c1ccc(C(=O)Nc2ccc(Cl)cc2C(=O)Nc2ccc(Cl)cn2)cc1 (configuration not stated) | 0.46 | 95% | 1.57 | IC50 [4]: 3.2 nM
23 | CCN(CC)CC(=O)N=S(C)(=O)c1ccc(C(=O)Nc2ccc(Cl)cc2C(=O)Nc2ccc(Cl)cn2)cc1 (configuration not stated) [listing 1 of 2 here] | 0.68 |  | 0.8 | Ki [5]: > 20000 nM; Ki [6]: > 20000 nM; Ki [7]: 1.1 nM; Ki [8]: > 20000 nM; inhibition at 10 µM [9]: 18%; Ki [10]: > 20000 nM; Ki [11]: > 20000 nM; IC50 [4]: 2.1 nM
24 | CCNCC(=O)N=S(C)(=O)c1ccc(C(=O)Nc2c(OC)cc(Cl)cc2C(=O)Nc2ccc(Cl)cn2)cc1 (configuration not stated) | 0.74 | 100% | 1.15 | IC50 [4]: 2.4 nM
25 | CS(=O)(=NC#N)c1ccc(C(=O)Nc2ccc(Cl)cc2C(=O)Nc2ccc(Cl)cn2)cc1 (configuration not stated) | 2.3 | 76% |  | 
26 | N=S(=O)(CCO)c1ccc(C(=O)Nc2ccc(Cl)cc2C(=O)Nc2ccc(Cl)cn2)cc1 (configuration not stated) |  | inactive |  | 
27 | CS(=N)(=O)Cc1ccc(C(=O)Nc2ccc(Cl)cc2C(=O)Nc2ccc(Cl)cn2)cc1 (configuration not stated) |  | inactive |  | 
28 | COc1ccc(NC(=O)c2ccc(S(C)(=N)=O)cc2)c(C(=O)Nc2ccc(Cl)cn2)c1 (configuration not stated) |  | 42% |  | 
29 | CC(C)N(CC(=O)N=S(C)(=O)c1ccc(C(=O)Nc2ccc(Cl)cc2C(=O)Nc2ccc(Cl)cn2)cc1)C(C)C (configuration not stated) | 1.45 | 79% |  | 
30 | CCN(CC)CC(=O)N=S(C)(=O)c1ccc(C(=O)Nc2ccc(Cl)cc2C(=O)Nc2ccc(Cl)cn2)cc1.Cl (configuration not stated) |  |  |  | Cmax [12]: 3.28 µg/mL; AUC [13]: 43.51 µg·h/mL; Cp [14]: < 0.1 µg/mL; Tmax [15]: 2.75 h; t1/2 [16]: 4.79 h; Activity [17]: 81%; Activity [18]: 71%; Activity [19]: 45%; Activity [20]: 32%
31 | C[S+](=N)([O-])c1ccc(C(=O)Nc2ccc(Cl)cc2C(=O)Nc2ccc(Cl)cn2)cc1 (configuration not stated) | 7.2 | 76% |  | 
32 | CCN(CC)CC(=O)N=S(C)(=O)c1ccc(C(=O)Nc2ccc(OC)cc2C(=O)Nc2ccc(Cl)cn2)cc1 (configuration not stated) | 1.44 | 56% |  | 
33 | CCN(CC)CC(=O)N=S(C)(=O)c1ccc(C(=O)Nc2ccc(Cl)cc2C(=O)Nc2ccc(Cl)cn2)cc1 (configuration not stated) [listing 2 of 2 here] |  | 100% |  | Activity [21]: Dose-dependent effect; Activity [22]: Dose-dependent effect
34 | O=C(NC[C@H]1CN(c2ccc(N3CCOCC3=O)cc2)C(=O)O1)c1ccc(Cl)s1 [RIVAROXABAN] | 0.39 |  | 1.5 | Activity [19]: 63%; Activity [20]: 50%
35 | CS(=O)(=NC(=O)CN1CCC(O)CC1)c1ccc(C(=O)Nc2ccc(Cl)cc2C(=O)Nc2ccc(Cl)cn2)cc1 (configuration not stated) | 2.16 | 69% |  | 
36 | CN(C)CC(=O)N=S(C)(=O)c1ccc(C(=O)Nc2ccc(Cl)cc2C(=O)Nc2ccc(Cl)cn2)cc1 (configuration not stated) | 1.2 | 85% | 1.4 | IC50 [4]: 9 nM
37 | CS(=O)(=NCCN1CCCC1)c1ccc(C(=O)Nc2ccc(Cl)cc2C(=O)Nc2ccc(Cl)cn2)cc1 (configuration not stated) | 2.16 | 74% |  | 
